Drawing on patent publication US8148391B2 (Cephalon, Inc., priority 2006, dated 2012), this text covers IC50 for nine compounds.

In test [1] the target is T1, baculovirus-expressed ALK (Homo sapiens, UniProt Q9UM73).
T1 construct: host or cells: baculovirus expression system
As to the kind of experiment: ALK Kinase Assay (ELISA-type, time-resolved fluorescence). The class given is biochemical. Conditions: 1 μM ATP (Km level); read-out: ALK Activity (ALK Kinase Inhibition, IC50). Summed up:
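Wells were coated with phospholipase C-γ at 10 μg/mL in Tris-buffered saline. Adding 30 ng/ml enzyme started the reaction, which ran at 37° C for 15 minutes before Eu-N1 PT66 antibody detection. Percent inhibition versus log10 concentration gave IC50 by variable-slope fit.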

Test [2] concerns the target T2, c-Met (cytoplasmic domain) (Homo sapiens, UniProt P08581).
T2 construct: 10 ng/mL c-Met (cytoplasmic domain, Invitrogen Corporation #PV3143); purchased Invitrogen Corporation PV3143
The test is described as follows: c-Met Kinase Assay (same methods as for ALK, with modifications). The class given is biochemical. As to conditions: 1 μM ATP (Km level); read-out: cMet Activity (c-Met Kinase Inhibition, IC50). Summed up:
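IC50 values were fitted by variable-slope sigmoidal regression of percent inhibition against log compound concentration. Phosphorylation was read with Eu-N1 PT66 antibody after a 15 min, 37 °C reaction. The reaction was initiated with 10 ng/mL c-Met cytoplasmic domain on wells coated with 10 μg/mL PLC-γ in TBS.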

T1 sequence (Q9UM73 19-1620): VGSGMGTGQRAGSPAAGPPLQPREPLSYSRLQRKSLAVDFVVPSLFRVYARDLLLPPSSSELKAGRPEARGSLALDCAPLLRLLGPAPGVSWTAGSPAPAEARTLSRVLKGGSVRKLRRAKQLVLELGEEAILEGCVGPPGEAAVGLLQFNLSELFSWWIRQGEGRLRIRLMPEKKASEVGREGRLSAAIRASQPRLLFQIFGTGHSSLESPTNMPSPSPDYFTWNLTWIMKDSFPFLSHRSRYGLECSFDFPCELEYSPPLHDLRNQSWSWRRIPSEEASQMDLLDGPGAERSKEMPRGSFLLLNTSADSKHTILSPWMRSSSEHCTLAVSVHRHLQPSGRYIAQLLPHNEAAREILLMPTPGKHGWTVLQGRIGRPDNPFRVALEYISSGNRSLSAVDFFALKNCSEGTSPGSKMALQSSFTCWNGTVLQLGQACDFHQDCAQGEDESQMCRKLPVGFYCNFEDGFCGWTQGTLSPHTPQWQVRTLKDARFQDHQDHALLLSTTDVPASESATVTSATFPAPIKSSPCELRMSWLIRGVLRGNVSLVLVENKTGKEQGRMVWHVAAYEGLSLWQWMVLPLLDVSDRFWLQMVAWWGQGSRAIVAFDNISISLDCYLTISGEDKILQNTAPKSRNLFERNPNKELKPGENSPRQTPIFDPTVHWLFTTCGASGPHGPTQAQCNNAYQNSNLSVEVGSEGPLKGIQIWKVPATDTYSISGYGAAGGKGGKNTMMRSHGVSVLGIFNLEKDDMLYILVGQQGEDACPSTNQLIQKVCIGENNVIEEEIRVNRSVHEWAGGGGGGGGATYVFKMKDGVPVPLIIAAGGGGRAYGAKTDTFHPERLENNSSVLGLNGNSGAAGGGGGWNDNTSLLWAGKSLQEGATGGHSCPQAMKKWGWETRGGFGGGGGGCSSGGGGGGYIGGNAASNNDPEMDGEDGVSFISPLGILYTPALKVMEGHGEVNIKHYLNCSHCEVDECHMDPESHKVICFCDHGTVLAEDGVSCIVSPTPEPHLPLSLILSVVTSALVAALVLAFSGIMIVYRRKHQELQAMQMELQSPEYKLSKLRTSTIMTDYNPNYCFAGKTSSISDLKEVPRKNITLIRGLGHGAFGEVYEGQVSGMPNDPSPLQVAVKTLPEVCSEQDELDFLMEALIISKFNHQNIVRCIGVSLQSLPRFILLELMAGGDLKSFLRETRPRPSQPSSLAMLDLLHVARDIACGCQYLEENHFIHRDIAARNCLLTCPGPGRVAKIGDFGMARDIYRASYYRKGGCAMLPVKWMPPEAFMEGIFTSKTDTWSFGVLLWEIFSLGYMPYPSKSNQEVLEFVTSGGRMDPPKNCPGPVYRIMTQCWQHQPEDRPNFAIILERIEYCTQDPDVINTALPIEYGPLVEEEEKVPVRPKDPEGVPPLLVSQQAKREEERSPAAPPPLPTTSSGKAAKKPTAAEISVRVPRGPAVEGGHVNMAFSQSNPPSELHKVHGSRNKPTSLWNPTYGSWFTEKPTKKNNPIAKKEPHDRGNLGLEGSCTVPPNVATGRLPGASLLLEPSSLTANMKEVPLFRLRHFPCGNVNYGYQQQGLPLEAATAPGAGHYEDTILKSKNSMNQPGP
T2 sequence (P08581 956-1390 limits assumed): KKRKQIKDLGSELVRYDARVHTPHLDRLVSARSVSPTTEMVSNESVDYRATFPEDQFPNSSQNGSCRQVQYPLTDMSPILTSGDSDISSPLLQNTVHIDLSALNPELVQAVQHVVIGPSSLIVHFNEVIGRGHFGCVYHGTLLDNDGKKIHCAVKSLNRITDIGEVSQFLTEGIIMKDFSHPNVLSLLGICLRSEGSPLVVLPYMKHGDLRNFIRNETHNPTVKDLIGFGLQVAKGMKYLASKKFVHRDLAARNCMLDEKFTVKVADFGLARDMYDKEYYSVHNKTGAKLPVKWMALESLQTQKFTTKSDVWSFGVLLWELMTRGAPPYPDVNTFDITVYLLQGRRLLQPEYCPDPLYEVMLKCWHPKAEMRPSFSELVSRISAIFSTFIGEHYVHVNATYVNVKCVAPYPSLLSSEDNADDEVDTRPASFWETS

Consider `COc1ccc(Nc2nc(Nc3cc4c(cc3OC)CN(CC3CC3)CC(=O)N4C)ncc2Cl)c(-n2cccn2)c1` [Example 748, 8-[5-Chloro-4-(4-methoxy-2-pyrazol-1-yl-phenylamino)-pyrimidin-2-ylamino]-cyclopropylmethyl-7-methoxy-1-methyl-1,3,4,5-tetrahydro-benzo[e][1,4]diazepin-2-one], for which the IC50 in test [1] was less than 0.1 µM; in test [2], greater than 10 µM.

As to `CCN1CC(=O)N(C)c2cc(Nc3ncc(Cl)c(Nc4ccc(OC)c(CNCCO)c4)n3)c(OC)cc2C1` [Example 749, 8-(5-Chloro-4-{3-[(2-hydroxy-ethylamino)-methyl]-4-methoxy-phenylamino}-pyrimidin-2-ylamino)-4-ethyl-7-methoxy-1-methyl-1,3,4,5-tetrahydro-benzo[e][1,4]diazepin-2-one], the IC50 in test [1] is 0.1 to 1 µM; in test [2], greater than 10 µM.

`COCCNC1CCc2cc(Nc3ncc(Cl)c(Nc4c(OC)ccc5c4CN(S(C)(=O)=O)CC(=O)N5)n3)c(OC)cc2CC1` (stereo not drawn) [Example 750, 6-{5-Chloro-2-[3-methoxy-7-(2-methoxy-ethylamino)-6,7,8,9-tetrahydro-5H-benzocyclohepten-2-ylamino]-pyrimidin-4-ylamino}-4-methanesulfonyl-7-methoxy-1,3,4,5-tetrahydro-benzo[e][1,4]diazepin-2-one]: the figures for the IC50 in test [1] and in test [2] were 1 to 10 µM and greater than 10 µM, respectively.

As to `COc1cc2c(cc1Nc1ncc(Cl)c(Nc3c(OC)ccc4c3CN(S(C)(=O)=O)CC(=O)N4)n1)CCN(CC(=O)N(C)C)CC2` [Example 751, 2-{7-[5-Chloro-4-(4-methanesulfonyl-7-methoxy-2-oxo-2,3,4,5-tetrahydro-1H-benzo[e][1,4]diazepin-6-ylamino)-pyrimidin-2-ylamino]-8-methoxy-1,2,4,5-tetrahydro-benzo[d]azepin-3-yl}-N,Ndimethyl-acetamide], the IC50 in test [1] was 1 to 10 µM; in test [2] it was greater than 10 µM.

Regarding `COc1cc2c(cc1Nc1ncc(Cl)c(N[C@@H]3CCCC[C@H]3NS(C)(=O)=O)n1)CCN(CC(F)F)CC2` [Example 762, N-((1R,2R)-2-{5-Chloro-2-[3-(2,2-difluoro-ethyl)-8-methoxy-2,3,4,5-tetrahydro-1H-benzo[d]azepin-7-ylamino]-pyrimidin-4-ylamino}-cyclohexyl)-methanesulfonamide], the results for the IC50 in test [1] and in test [2] were less than 0.1 µM and greater than 10 µM, respectively.

In the case of `COc1cc2c(cc1Nc1ncc(Cl)c(Nc3ccc(N4CCN(C)CC4)cc3OC)n1)CCN(CC(F)F)CC2` [Example 764, 5-Chloro-N*2*-[3-(2,2-difluoro-ethyl)-8-methoxy-2,3,4,5-tetrahydro-1H-benzo[d]azepin-7-yl]-N*4*-[2-methoxy-4-(4-methyl-piperazin-1-yl)-phenyl]-pyrimidine-2,4-diamine], the IC50 was less than 0.1 µM in test [1] and greater than 10 µM in test [2].

Take `COc1cc2c(cc1Nc1ncc(Cl)c(Nc3ccc(N4CCN(C)CC4)c(C)c3)n1)CCN(CC(F)F)CC2` [Example 765, 5-Chloro-N*2*-[3-(2,2-difluoro-ethyl)-8-methoxy-2,3,4,5-tetrahydro-1H-benzo[d]azepin-7-yl]-N*4*-[3-methyl-4-(4-methyl-piperazin-1-yl)-phenyl]-pyrimidine-2,4-diamine]: the IC50 in test [1] is less than 0.1 µM; in test [2], greater than 10 µM.

As for `CNC(=O)c1ccccc1Nc1nc(Nc2cc3c(cc2OC)CCN(CC(F)F)CC3)ncc1Cl` [Example 766, 2-{5-Chloro-2-[3-(2,2-difluoro-ethyl)-8-methoxy-2,3,4,5-tetrahydro-1H-benzo[d]azepin-7-ylamino]-pyrimidin-4-ylamino}-N-methyl-benzamide], the results for the IC50 in test [1] and in test [2] were less than 0.1 µM and 1 to 10 µM, respectively.

As for `CCNC(=O)c1ccccc1Nc1nc(Nc2cc3c(cc2OC)CCN(CC(F)F)CC3)ncc1Cl` [Example 767, 2-{5-Chloro-2-[3-(2,2-difluoro-ethyl)-8-methoxy-2,3,4,5-tetrahydro-1H-benzo[d]azepin-7-ylamino]-pyrimidin-4-ylamino}-N-ethyl-benzamide], the values for the IC50 in test [1] and in test [2] were less than 0.1 µM and greater than 10 µM, respectively.
